Experimental data as given in ChEMBL document CHEMBL4196011, “The lead optimization of the polyamine conjugate of flavonoid with a naphthalene motif: Synthesis and biological evaluation” (Eur J Med Chem, 2018).
Calls of active or inactive are those of the source. No cut-off for these calls is given here.

How the values were obtained:
[1] = tested on: HepG2; test: Induction of apoptosis in human HepG2 cells assessed as early apoptotic cells at 7.5 uM after 24 hrs by Annexin V-FITC/propidium iodide staining-based flow cytometry (reference value: 2.07%); format: functional
[2] = tested on: HepG2; test: Induction of autophagy in human HepG2 cells assessed as formation of autolysosomes at 2.5 to 7.5 uM preincubated cells with 3-MA for 2 hrs followed by compound addition measured after 48 hrs by MDC staining-based assay; format: functional, cell-based
[3] = tested on: HepG2; test: Induction of apoptosis in human HepG2 cells assessed as viable cells at 2.5 uM after 36 hrs by Annexin V-FITC/propidium iodide staining-based flow cytometry (reference value: 96.6%); format: functional; conditions: HepG2, 36 h, read-out: Activity
[4] = tested on: HepG2; test: Induction of autophagy in human HepG2 cells assessed as increase in LC3-2 expression at 5 uM by Western blot analysis; format: functional, cell-based
[5] = tested on: HepG2; test: Induction of apoptosis in human HepG2 cells assessed as necrotic cells at 2.5 uM after 36 hrs by Annexin V-FITC/propidium iodide staining-based flow cytometry (reference value: 0.24%); format: functional
[6] = tested on: Mus musculus; test: Toxicity in Kunming mouse xenografted with […] H22 cells assessed as effect on body weight at 30 mg/kg, iv administered for 7 consecutive days; format: organism-based; conditions: in vivo
[7] = tested on: HepG2; test: Induction of apoptosis in human HepG2 cells assessed as viable cells at 2.5 uM after 8 hrs by Annexin V-FITC/propidium iodide staining-based flow cytometry (reference value: 97.43%); format: functional; conditions: HepG2, 8 h, read-out: Activity
[8] = tested on: HepG2; test: Induction of apoptosis in human HepG2 cells assessed as viable cells at 5 uM after 48 hrs by Annexin V-FITC/propidium iodide staining-based flow cytometry (reference value: 96.67%); format: functional; conditions: HepG2, 48 h, read-out: Activity
[9] = tested on: HepG2; test: Induction of apoptosis in human HepG2 cells assessed as early apoptotic cells at 5 uM after 24 hrs by Annexin V-FITC/propidium iodide staining-based flow cytometry (reference value: 2.07%); format: functional
[10] = tested on: HepG2; test: Induction of apoptosis in human HepG2 cells assessed as viable cells at 5 uM after 36 hrs by Annexin V-FITC/propidium iodide staining-based flow cytometry (reference value: 96.6%); format: functional; conditions: HepG2, 36 h, read-out: Activity
[11] = tested on: HepG2; test: Induction of apoptosis in human HepG2 cells assessed as viable cells at 7.5 uM after 8 hrs by Annexin V-FITC/propidium iodide staining-based flow cytometry (reference value: 97.43%); format: functional; conditions: HepG2, 8 h, read-out: Activity
[12] = tested on: Mus musculus; test: Toxicity in Kunming mouse xenografted with […] H22 cells assessed as effect on heart weight index at 30 mg/kg, iv administered for 7 consecutive days; format: organism-based; conditions: in vivo
[13] = Drug localization in endoplasmic reticulum of human HepG2 cells at 7.5 uM after 8 hrs by ER-Tracker Red dye-based confocal fluorescence microscopic analysis; format: ADME, subcellular; conditions: hepg2, 8 h
[14] = tested on: HepG2; test: Induction of apoptosis in human HepG2 cells assessed as early apoptotic cells at 7.5 uM after 36 hrs by Annexin V-FITC/propidium iodide staining-based flow cytometry (reference value: 2.08%); format: functional
[15] = tested on: Mus musculus; test: Toxicity in Kunming mouse xenografted with […] H22 cells assessed as effect on spleen weight index at 30 mg/kg, iv administered for 7 consecutive days; format: organism-based; conditions: in vivo
[16] = tested on: HepG2; test: Induction of apoptosis in human HepG2 cells at 5 uM preincubated cells with autophagy inhibitor 3-MA for 2 hrs followed by compound addition measured after 48 hrs by Annexin V-FITC/propidium iodide staining-based flow cytometry relative to control; format: functional; design: scale not given: the % may be the effect or the level left
[17] = tested on: K562; test: Antiproliferative activity against human K562 cells after 48 hrs by MTT assay; format: functional, cell-based; conditions: K562, 48 h
[18] = tested on: HepG2; test: Induction of apoptosis in human HepG2 cells assessed as early apoptotic cells at 5 uM after 36 hrs by Annexin V-FITC/propidium iodide staining-based flow cytometry (reference value: 2.08%); format: functional
[19] = tested on: HepG2; test: Induction of apoptosis in human HepG2 cells assessed as early apoptotic cells at 2.5 uM after 36 hrs by Annexin V-FITC/propidium iodide staining-based flow cytometry (reference value: 2.08%); format: functional
[20] = tested on: HepG2; test: Induction of apoptosis in human HepG2 cells assessed as late apoptotic cells at 7.5 uM after 8 hrs by Annexin V-FITC/propidium iodide staining-based flow cytometry (reference value: 0.88%); format: functional
[21] = tested on: HepG2; test: Induction of apoptosis in human HepG2 cells assessed as viable cells at 7.5 uM after 48 hrs by Annexin V-FITC/propidium iodide staining-based flow cytometry (reference value: 96.67%); format: functional; conditions: HepG2, 48 h, read-out: Activity
[22] = tested on: HepG2; test: Induction of apoptosis in human HepG2 cells assessed as necrotic cells at 5 uM after 36 hrs by Annexin V-FITC/propidium iodide staining-based flow cytometry (reference value: 0.24%); format: functional
[23] = target: MAP kinase p38 (Homo sapiens) (UniProt O15264+Q15759+Q16539+P53778); test: Induction of p38 phosphorylation in human HepG2 cells after 48 hrs by immunofluorescence staining-based high content screening assay; format: cell-based
[24] = tested on: HepG2; test: Induction of apoptosis in human HepG2 cells assessed as disruption of mitochondrial membrane potential after 48 hrs by Rh123 staining-based fluorescence quenching analysis; format: functional, cell-based
[25] = Drug localization in golgi apparatus of human HepG2 cells at 7.5 uM after 8 hrs by Golgi-Tracker Red dye-based confocal fluorescence microscopic analysis; format: ADME, subcellular; conditions: hepg2, 8 h
[26] = tested on: HepG2; test: Induction of apoptosis in human HepG2 cells assessed as upregulation of active caspase 9 level after 48 hrs by immunofluorescence staining-based high content screening assay; format: functional, cell-based
[27] = tested on: H22; test: Antitumor activity against […] xenografted in Kunming mouse assessed as tumor growth inhibition at 30 mg/kg, iv for 7 consecutive days measured on day 16; format: functional; conditions: 384 h, read-out: TGI
[28] = tested on: HepG2; test: Induction of apoptosis in human HepG2 cells assessed as necrotic cells at 7.5 uM after 8 hrs by Annexin V-FITC/propidium iodide staining-based flow cytometry (reference value: 0.40%); format: functional
[29] = tested on: HepG2; test: Induction of apoptosis in human HepG2 cells assessed as late apoptotic cells at 5 uM after 48 hrs by Annexin V-FITC/propidium iodide staining-based flow cytometry (reference value: 0.95%); format: functional
[30] = tested on: HepG2; test: Induction of apoptosis in human HepG2 cells assessed as necrotic cells at 5 uM after 8 hrs by Annexin V-FITC/propidium iodide staining-based flow cytometry (reference value: 0.40%); format: functional
[31] = target: c-Jun N-terminal kinase, JNK (Homo sapiens) (UniProt P45983+P53779+P45984); test: Induction of JNK phosphorylation in human HepG2 cells after 48 hrs by immunofluorescence staining-based high content screening assay; format: cell-based
[32] = tested on: HepG2; test: Induction of apoptosis in human HepG2 cells assessed as decrease in nuclear volume after 48 hrs by Hoechst 33342 staining-based assay; format: functional, cell-based
[33] = tested on: HepG2; test: Induction of ROS generation in human HepG2 cells after 48 hrs by DCFH-DA staining-based fluorescence assay; format: functional, cell-based
[34] = tested on: HT-29; test: Antiproliferative activity against human HT-29 cells after 48 hrs by MTT assay; format: functional, cell-based; conditions: HT-29, 48 h
[35] = tested on: HepG2; test: Induction of apoptosis in human HepG2 cells assessed as late apoptotic cells at 2.5 uM after 8 hrs by Annexin V-FITC/propidium iodide staining-based flow cytometry (reference value: 0.88%); format: functional

COc1ccc2cc(-c3oc4c(CNCCCCN)cccc4c(=O)c3OC)ccc2c1Br.Cl.Cl
Activity [1]: 18.85% | Activity [2]: inactive | viability at 2.5 µM [3]: 84% | Activity [4]: Active | Activity [5]: 3.9% | Activity [6]: Non-Toxic | viability at 2.5 µM [7]: 96.1% | viability at 5 µM [8]: 60.4% | Activity [9]: 15.76% | viability at 5 µM [10]: 81% | viability at 7.5 µM [11]: 78.5% | Activity [12]: Non-Toxic | Drug uptake [13]: Active | Activity [14]: 28.78% | Activity [15]: Non-Toxic | Activity [16]: 53.07% | IC50 [17]: 13.4 µM | Activity [18]: 16.72% | Activity [19]: 6.24% | Activity [20]: 3.38% | viability at 7.5 µM [21]: 45.6% | Activity [22]: 0.09% | Activity [23]: Dose-dependent effect | Activity [24]: Dose-dependent effect | Drug uptake [25]: Not Active | Activity [26]: Dose-dependent effect | inhibition in vivo at 30 mg/kg [27]: 63.6% | Activity [28]: 0.05% | Activity [29]: 9.87% | Activity [30]: 0.03% | Activity [31]: Dose-dependent effect | Activity [32]: Dose-dependent effect | Activity [33]: Dose-dependent effect | IC50 [34]: 14.7 µM | Activity [35]: 1.52%
